In patent US4470976A, “Poly-cation salt of 4-O-polyhexaose-thio-arylene sulfates” (American Cyanamid Company, priority 1983, dated 1984):
Where a name gives a salt, the structure may show the parent alone. Read-outs that look alike come from different tables or passages of the source.

Legend:
activated human C1 = activated human C1 (Homo sapiens, UniProt P09871); experiment: Test Code 026 (C1 inhibitor); format: biochemical; details: serial dilution assay, twofold dilutions; higher well number indicates higher activity
[1] = test system: late components of human complement (C3-C9); experiment: Test Code 035 (C3-C9 inhibitor), lysis of EAC 142; format: biochemical; details: serial dilution assay, twofold dilutions; higher well number indicates higher activity
[2] = test system: serum complement activity; experiment: Guinea Pig Intraperitoneal Test (GPIP); format: in vivo; details: Cavia porcellus, ip, 200 mg/kg i.p.
Description: The concentration of compound inhibiting 50% is reported; and (iv) Guinea Pig Intraperitoneal Test (GPIP): Guinea pigs weighing about 300 g are dosed intraperitoneally (i.p.) with 200 mg/kg of the test compound dissolved in saline and adjusted to pH 7-8. Approximately 0.4 ml blood samples, taken by orbital sinus puncture 2 hours and 6 hours after injections, are collected directly into centifuge tubes; 5 ml blood samples, taken by decapitation 24 hours after injection, are collected directly into beakers. The samples are allowed to clot, centrifuged, and the resultant sera are assayed for complement activity using the capillary complement assay. Percent inhibition is calculated by comparison with simultaneous controls.

human serum complement = details: both in vitro and in vivo; cited from earlier work
[3] = serum complement 2 hours after injection, read-out: In vivo Activity Guinea Pig % Inhibition Intraperitoneal, 2 hours
[4] = serum complement 6 hours after injection, read-out: In vivo Activity Guinea Pig % Inhibition Intraperitoneal, 6 hours
[5] = serum complement 24 hours after injection, read-out: In vivo Activity Guinea Pig % Inhibition Intraperitoneal, 24 hours

## 4-(Sulfanilamido)phenyl 2,3,6-tri-O-sulfo-4-O-(2,3,4,6-tetra-O-sulfo-α-D-glucopyranosyl)-1-thio-β-D-glucopyranoside octasodium salt
Activated human C1
  In vitro Activity C1 026 Wells: 5 Wells

## O=S(=O)(O)OC[C@H]1O[C@@H]([S+]([O-])c2cc(OS(=O)(=O)O)ccc2OS(=O)(=O)O)[C@H](OS(=O)(=O)O)[C@@H](OS(=O)(=O)O)[C@@H]1O[C@H]1O[C@H](COS(=O)(=O)O)[C@@H](OS(=O)(=O)O)[C@H](OS(=O)(=O)O)[C@H]1OS(=O)(=O)O (stereo partly drawn) [2,5-Bis(sulfooxy)phenyl 2,3,6-tri-O-sulfo-4-O-(2,3,4,6-tetra-O-sulfo-α-D-glucopyranosyl)-1-sulfinyl-β-D-glucopyranoside nonasodium salt]
Activated human C1
  In vitro Activity C1 026 Wells: 11 Wells
[1]
  In vitro Activity C-Late 035 Wells: 2 Wells

## O=S(=O)([O-])OC[C@H]1O[C@@H](Sc2cc(OS(=O)(=O)[O-])ccc2OS(=O)(=O)[O-])[C@H](OS(=O)(=O)[O-])[C@@H](OS(=O)(=O)[O-])[C@@H]1O[C@H]1O[C@H](COS(=O)(=O)[O-])[C@@H](OS(=O)(=O)[O-])[C@H](OS(=O)(=O)[O-])[C@H]1OS(=O)(=O)[O-].[Na+].[Na+].[Na+].[Na+].[Na+].[Na+].[Na+].[Na+].[Na+] [2,5-Bis(sulfooxy)phenyl 2,3,6-tri-O-sulfo-4-O-(2,3,4,6-tetra-O-sulfo-α-D-glucopyranosyl)-1-thio-β-D-glucopyranoside nonasodium salt]
Activated human C1
  In vitro Activity C1 026 Wells: 9 Wells
[1]
  In vitro Activity C-Late 035 Wells: 2 Wells
[2]; [3]
  inhibition at 200 mg/kg: 83%
[2]; [4]
  inhibition at 200 mg/kg: 77%

## O=C([O-])c1ccccc1S[C@@H]1O[C@H](COS(=O)(=O)[O-])[C@@H](O[C@H]2O[C@H](COS(=O)(=O)[O-])[C@@H](OS(=O)(=O)[O-])[C@H](OS(=O)(=O)[O-])[C@H]2OS(=O)(=O)[O-])[C@H](OS(=O)(=O)[O-])[C@H]1OS(=O)(=O)[O-].[Na+].[Na+].[Na+].[Na+].[Na+].[Na+].[Na+].[Na+] [2-Carboxyphenyl 2,3,6-tri-O-sulfo-4-O-(2,3,4,6-tetra-O-sulfo-α-D-glucopyranosyl)-1-thio-β-D-glucopyranoside octasodium salt]
Activated human C1
  In vitro Activity C1 026 Wells: 8 Wells

## O=S(=O)(O)OC[C@H]1O[C@@H](Sc2cccc(S)c2)[C@H](OS(=O)(=O)O)[C@@H](OS(=O)(=O)O)[C@@H]1O[C@H]1O[C@H](COS(=O)(=O)O)[C@@H](OS(=O)(=O)O)[C@H](OS(=O)(=O)O)[C@H]1OS(=O)(=O)O.[Na+].[Na+].[Na+].[Na+].[Na+].[Na+].[Na+].[Na+] [3-Mercaptophenyl 2,3,6-tri-O-sulfo-4-O-(2,3,4,6-tetra-O-sulfo-α-D-glucopyranosyl)-1-thio-β-D-glucopyranoside octasodium salt]
Activated human C1
  In vitro Activity C1 026 Wells: 11 Wells
[1]
  In vitro Activity C-Late 035 Wells: 3 Wells

## O=S(=O)([O-])OC[C@H]1O[C@@H](Sc2cccc(C(F)(F)F)c2)[C@H](OS(=O)(=O)[O-])[C@@H](OS(=O)(=O)[O-])[C@@H]1O[C@H]1O[C@H](COS(=O)(=O)[O-])[C@@H](OS(=O)(=O)[O-])[C@H](OS(=O)(=O)[O-])[C@H]1OS(=O)(=O)[O-].[Na+].[Na+].[Na+].[Na+].[Na+].[Na+].[Na+] [3-Trifluoromethylphenyl 2,3,6-tri-O-sulfo-4-O-(2,3,4,6-tetra-O-sulfo-α-D-glucopyranosyl)-1-thio-β-D-glucopyranoside heptasodium salt]
Activated human C1
  In vitro Activity C1 026 Wells: 5 Wells

## CCOC(=O)C(=O)Nc1ccc(S[C@@H]2O[C@H](COS(=O)(=O)O)[C@@H](O[C@H]3O[C@H](COS(=O)(=O)O)[C@@H](OS(=O)(=O)O)[C@H](OS(=O)(=O)O)[C@H]3OS(=O)(=O)O)[C@H](OS(=O)(=O)O)[C@H]2OS(=O)(=O)O)cc1 [4-(Ethoxyoxalylamino)phenyl 2,3,6-tri-O-sulfo-4-O-(2,3,4,6-tetra-O-sulfo-α-D-glucopyranosyl)-1-thio-β-D-glucopyranoside heptasodium salt]
Activated human C1
  In vitro Activity C1 026 Wells: 8 Wells
[2]; [3]
  inhibition at 200 mg/kg: 81%
[2]; [4]
  inhibition at 200 mg/kg: 71%
[2]; [5]
  inhibition at 200 mg/kg: 32%

## Nc1ccc(S[C@@H]2O[C@H](COS(=O)(=O)[O-])[C@@H](O[C@H]3O[C@H](COS(=O)(=O)[O-])[C@@H](OS(=O)(=O)[O-])[C@H](OS(=O)(=O)[O-])[C@H]3OS(=O)(=O)[O-])[C@H](OS(=O)(=O)[O-])[C@H]2OS(=O)(=O)[O-])cc1.[Na+].[Na+].[Na+].[Na+].[Na+].[Na+].[Na+] [4-Aminophenyl 2,3,6-tri-O-sulfo-4-O-(2,3,4,6-tetra-O-sulfo-α-D-glucopyranosyl)-1-thio-β-D-glucopyranoside heptasodium salt]
Activated human C1
  In vitro Activity C1 026 Wells: 9 Wells
[2]; [3]
  inhibition at 200 mg/kg: 61%
[2]; [4]
  inhibition at 200 mg/kg: 19%
[2]; [5]
  inhibition at 200 mg/kg: 42%

## O=S(=O)([O-])OC[C@H]1O[C@@H](Sc2ccc(F)cc2)[C@H](OS(=O)(=O)[O-])[C@@H](OS(=O)(=O)[O-])[C@@H]1O[C@H]1O[C@H](COS(=O)(=O)[O-])[C@@H](OS(=O)(=O)[O-])[C@H](OS(=O)(=O)[O-])[C@H]1OS(=O)(=O)[O-].[Na+].[Na+].[Na+].[Na+].[Na+].[Na+].[Na+] [4-Fluorophenyl 2,3,6-tri-O-sulfo-4-O-(2,3,4,6-tetra-O-sulfo-α-D-glucopyranosyl)-1-thio-β-D-glucopyranoside heptasodium salt]
Activated human C1
  In vitro Activity C1 026 Wells: 8 Wells

## COc1ccc(S[C@@H]2O[C@H](COS(=O)(=O)[O-])[C@@H](O[C@H]3O[C@H](COS(=O)(=O)[O-])[C@@H](OS(=O)(=O)[O-])[C@H](OS(=O)(=O)[O-])[C@H]3OS(=O)(=O)[O-])[C@H](OS(=O)(=O)[O-])[C@H]2OS(=O)(=O)[O-])cc1.[Na+].[Na+].[Na+].[Na+].[Na+].[Na+].[Na+] [4-Methoxyphenyl 2,3,6-tri-O-sulfo-4-O-(2,3,4,6-tetra-O-sulfo-α-D-glucopyranosyl)-1-thio-β-D-glucopyranoside heptasodium salt]
Activated human C1
  In vitro Activity C1 026 Wells: 4 Wells

## O=S(=O)([O-])OC[C@H]1O[C@@H](Sc2ccc(OS(=O)(=O)[O-])cc2)[C@H](OS(=O)(=O)[O-])[C@@H](OS(=O)(=O)[O-])[C@@H]1O[C@H]1O[C@H](COS(=O)(=O)[O-])[C@@H](OS(=O)(=O)[O-])[C@H](OS(=O)(=O)[O-])[C@H]1OS(=O)(=O)[O-].[Na+].[Na+].[Na+].[Na+].[Na+].[Na+].[Na+].[Na+] [4-Sulfooxyphenyl 2,3,6-tri-O-sulfo-4-O-(2,3,4,6-tetra-O-sulfo-α-D-glucopyranosyl)-1-thio-β-D-glucopyranoside octasodium salt]
Activated human C1
  In vitro Activity C1 026 Wells: 8 Wells

## CC(=O)Nc1ccc(S[C@@H]2O[C@H](COS(=O)(=O)O)[C@@H](O[C@@H]3O[C@H](COS(=O)(=O)O)[C@@H](OS(=O)(=O)O)[C@H](OS(=O)(=O)O)[C@H]3OS(=O)(=O)O)[C@H](OS(=O)(=O)O)[C@H]2OS(=O)(=O)O)cc1 [4-acetamidophenyl 2,3,6-tri-O-sulfo-4-O-(2,3,4,6-tetra-O-sulfo-β-D-glucopyranosyl)-1-thio-β-D-glucopyranoside heptasodium salt]
[2]; [3]
  inhibition at 200 mg/kg: 86%
[2]; [4]
  inhibition at 200 mg/kg: 66%
[2]; [5]
  inhibition at 200 mg/kg: 15%

## pentosan-polysulfoester
Human serum complement
  anticomplementary activity, judged by the reduction in total hemolytic complement activity: has an anticomplementary activity on human serum, both in vitro and in vivo
